The record followed here is patent US10875857B2, “1-amino-triazolo(1,5-A)pyridine-substituted urea derivative and uses thereof” (Kala Pharmaceuticals, Inc., priority 2014, dated 2020).

One test concerns the target T1, PDGFR-β (Mus musculus, UniProt P05622).
T1 construct: The murine embryonal fibroblast cell line NIH3T3 expresses endogenously high levels of PDGFR-β; endogenous in cells; host or cells: NIH3T3 murine embryonal fibroblast cell line
Nature of the test: Cellular PDGFR-β tyrosine auto-phosphorylation assay in NIH3T3 cells after PDGF-BB stimulation (sandwich ELISA). To be noted: 90 min incubation with compound, then 3 min stimulation with 100 ng/ml PDGF-BB, phosphorylated PDGFR-β by ELISA, read-out: cellular 1050 values, PDGFR-β. The format is cell-based, murine. Here is the method: The murine embryonal fibroblast cell line NIH3T3 expresses endogenously high levels of PDGFR-β. The compound prepared in Example 2 above was tested for the ability to inhibit tyrosine auto-phosphorylation of this receptor after stimulation with platelet-derived growth factor BB (PDGF-BB). The NIH3T3 cells were plated into multi-well cell culture plates in Dulbecco's Modified Eagle Medium (DMEM) supplemented with 10% FCS. The medium was removed and then replaced with DMEM without FCS and cells serum starved overnight at 37° C. On the day of the assay the compound was 1:3 serial diluted from 10 mM stocks in 100% DMSO and then were 1:100 diluted to each well of cells in DMEM without FCS to create final solutions containing 1% DMSO and an eight point compound dose response curve starting at 10^−6 M, 10^−7 M, or 10^−8 M. The compound was added in duplicate to columns of the multi-well plate. […] Cells were lysed, and then levels of phosphorylated PDGFR-β were determined in a sandwich ELISA assay formatted in a multi-well plate using a PDGFR-β specific capture antibody and an anti-phosphotyrosine PDGFR-β detection antibody. […] IC50 values were determined by fitting the converted eight point dose response data to a four-parameter logistic equation using GRAPHPAD PRISM® 5.01 software.

A further test addresses T2, VEGFR2 (Homo sapiens, UniProt P35968).
T2 construct: The human umbilical endothelial (HUE) cell line expresses high levels of VEGFR2; endogenous in cells; host or cells: HUE (human umbilical endothelial) cell line
Put plainly: Cellular VEGFR2 tyrosine auto-phosphorylation assay in HUE cells after VEGF-A stimulation (sandwich ELISA). In kind it is cell-based. To be noted: 90 min incubation with compound, then 3 min stimulation with 100 ng/ml VEGF-A, phosphorylated VEGFR2 by ELISA, read-out: cellular 1050 values, VEGFR2. As for the experimental part:
The human umbilical endothelial (HUE) cell line expresses high levels of VEGFR2. The compound prepared in Example 2 above, 1-(4-(3-amino-[1,2,3]triazolo[1,5-a]pyridin-4-yl)phenyl)-3-(3-chlorophenyl)urea, was tested for the ability to inhibit tyrosine auto-phosphorylation of this receptor after stimulation with vascular endothelial growth factor A (VEGF-A). HUE cells were plated into multi-well cell culture plates in endothelial cell growth medium (ECGM) supplemented with 10% fetal calf serum (FCS). After starvation in endothelial cell basal medium (ECBM) supplemented with […] overnight cells were incubated with compounds in serum-free ECBM. […] Cells were incubated for 90 min at 37° C. in ECBM with the serial diluted compound and then stimulated for 3 min with 100 ng/ml VEGF-A. Cells were lysed, and then levels of phosphorylated VEGFR2 were determined in a sandwich ELISA assay formatted in a multi-well plate using a VEGFR2 specific capture antibody and an anti-phosphotyrosine VEGFR2 detection antibody. […] IC50 values were determined by fitting the converted eight point dose response data to a four-parameter logistic equation using GRAPHPAD PRISM® 5.01 software.

T1 sequence (P05622 32-1098): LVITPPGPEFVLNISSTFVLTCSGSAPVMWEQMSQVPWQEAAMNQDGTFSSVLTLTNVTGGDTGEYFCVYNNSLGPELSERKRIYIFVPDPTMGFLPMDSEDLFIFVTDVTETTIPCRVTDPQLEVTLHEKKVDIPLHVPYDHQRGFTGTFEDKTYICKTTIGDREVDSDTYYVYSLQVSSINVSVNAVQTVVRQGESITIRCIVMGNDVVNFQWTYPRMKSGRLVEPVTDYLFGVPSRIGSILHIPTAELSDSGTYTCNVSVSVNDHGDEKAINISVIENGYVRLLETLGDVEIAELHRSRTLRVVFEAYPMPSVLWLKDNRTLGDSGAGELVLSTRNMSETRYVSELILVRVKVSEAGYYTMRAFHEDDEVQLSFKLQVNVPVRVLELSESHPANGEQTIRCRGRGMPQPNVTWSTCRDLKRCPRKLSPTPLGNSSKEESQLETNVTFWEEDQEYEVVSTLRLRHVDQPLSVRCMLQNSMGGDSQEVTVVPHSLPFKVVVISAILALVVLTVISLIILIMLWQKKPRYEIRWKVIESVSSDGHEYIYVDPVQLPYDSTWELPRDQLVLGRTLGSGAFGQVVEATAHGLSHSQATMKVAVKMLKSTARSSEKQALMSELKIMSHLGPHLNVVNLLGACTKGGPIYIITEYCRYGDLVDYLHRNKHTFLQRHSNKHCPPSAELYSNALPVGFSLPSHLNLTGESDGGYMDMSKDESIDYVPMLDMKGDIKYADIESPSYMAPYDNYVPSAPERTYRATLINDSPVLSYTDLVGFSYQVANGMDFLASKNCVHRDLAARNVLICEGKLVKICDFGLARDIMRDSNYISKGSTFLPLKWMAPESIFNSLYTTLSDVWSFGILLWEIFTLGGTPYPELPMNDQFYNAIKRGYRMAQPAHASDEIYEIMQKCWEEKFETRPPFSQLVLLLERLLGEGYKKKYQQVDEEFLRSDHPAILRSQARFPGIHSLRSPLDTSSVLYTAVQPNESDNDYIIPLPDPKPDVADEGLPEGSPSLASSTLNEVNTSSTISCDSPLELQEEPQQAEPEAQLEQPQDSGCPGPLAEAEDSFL
T2 sequence (P35968 20-1356): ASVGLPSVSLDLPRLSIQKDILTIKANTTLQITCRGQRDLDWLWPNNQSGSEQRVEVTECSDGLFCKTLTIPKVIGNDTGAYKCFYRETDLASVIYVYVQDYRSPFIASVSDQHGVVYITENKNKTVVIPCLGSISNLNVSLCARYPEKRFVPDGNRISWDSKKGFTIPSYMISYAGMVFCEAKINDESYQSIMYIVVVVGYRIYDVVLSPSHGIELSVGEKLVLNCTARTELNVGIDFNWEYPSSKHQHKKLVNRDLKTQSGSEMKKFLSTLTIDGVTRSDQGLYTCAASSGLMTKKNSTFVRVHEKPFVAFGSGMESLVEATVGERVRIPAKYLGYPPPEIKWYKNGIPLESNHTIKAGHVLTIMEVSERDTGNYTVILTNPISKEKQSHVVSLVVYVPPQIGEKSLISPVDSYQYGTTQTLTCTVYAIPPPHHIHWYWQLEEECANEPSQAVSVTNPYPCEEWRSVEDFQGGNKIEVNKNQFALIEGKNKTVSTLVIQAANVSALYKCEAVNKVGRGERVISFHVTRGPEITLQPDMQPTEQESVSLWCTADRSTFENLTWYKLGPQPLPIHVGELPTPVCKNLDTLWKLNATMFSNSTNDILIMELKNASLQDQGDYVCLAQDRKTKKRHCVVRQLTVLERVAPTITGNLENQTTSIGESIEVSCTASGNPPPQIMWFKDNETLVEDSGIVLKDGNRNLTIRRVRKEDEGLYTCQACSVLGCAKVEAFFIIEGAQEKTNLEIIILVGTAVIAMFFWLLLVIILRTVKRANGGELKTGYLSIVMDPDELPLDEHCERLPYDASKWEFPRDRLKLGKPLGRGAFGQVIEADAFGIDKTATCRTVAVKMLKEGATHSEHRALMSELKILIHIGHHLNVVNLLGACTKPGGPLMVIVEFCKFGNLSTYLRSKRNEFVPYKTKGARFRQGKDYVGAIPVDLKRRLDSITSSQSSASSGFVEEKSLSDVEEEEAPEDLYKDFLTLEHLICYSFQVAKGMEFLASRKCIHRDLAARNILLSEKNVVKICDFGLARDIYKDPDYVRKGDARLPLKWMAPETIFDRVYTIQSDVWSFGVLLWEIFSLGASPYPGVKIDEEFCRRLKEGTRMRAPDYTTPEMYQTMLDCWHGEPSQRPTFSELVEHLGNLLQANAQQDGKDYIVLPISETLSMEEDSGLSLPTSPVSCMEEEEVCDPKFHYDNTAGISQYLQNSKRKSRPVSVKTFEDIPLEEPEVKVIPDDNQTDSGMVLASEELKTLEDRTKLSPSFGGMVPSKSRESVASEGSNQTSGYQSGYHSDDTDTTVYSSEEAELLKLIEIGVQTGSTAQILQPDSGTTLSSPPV

Take `Nc1nnn2cccc(-c3ccc(NC(=O)Nc4cccc(Cl)c4)cc3)c12` [compound of Formula (I), 1-(4-(3-amino-[1,2,3]triazolo[1,5-a]pyridin-4-yl)phenyl)-3-(3-chlorophenyl)urea]: the figures for the IC50 on PDGFR-β and at VEGFR2 were 3.2 nM and 0.37 nM, respectively.
